Columns and labels:
[1] = test system: RIDD (IRE1α-dependent mRNA decay); assay: Real-time PCR of RIDD mRNA targets in INS-1 cells overexpressing IRE1α (Dox); type: cell-based, rat; settings: 20 μM, 5 ng/mL Dox
Procedure: RNA Isolation, Quantitative Real-Time PCR, and Primers
INS-1 or isogenic IRE1α-overexpressing INS-1 cells were plated onto Poly-D-Lysine coated tissue culture plate and grown for 48 hrs. Inhibitors or DMSO were added to the media and incubated for 1 hour at 37° C. with 5% CO2 prior to addition of ER stress agents or Dox as indicated. RNA was isolated from whole cells using either QIAGEN RNeasy Mini kits or Trizol (Invitrogen) and reverse transcribed as above to obtain total cDNA. Then, XBP-1 primers were used to amplify an XBP-1 amplicon spanning the 26 nt intron from the cDNA samples in a regular 3-step PCR. Thermal cycles were: 5 min at 95° C., 30 cycles of 30 s at 95° C., 30 s at 60° C., and 1 min at 72° C., followed by 72° C. for 15 min, and hold at 4° C. Primers used for XBP-1 mRNA splicing were as follows: sense primer XBP1.3 S (5′ […]-3′ (SEQ ID NO:2)) and antisense primer XBP1.2AS (5′-[…]-3′ (SEQ ID NO:3)). PCR fragments were then digested by PstI, resolved on 3% agarose gels, stained with EtBr and quantified by densitometry using ImageJ (NIH). For standard mRNA detection, generally […] total RNA was reverse transcribed using the QuantiTect Reverse Transcription Kit (QIAGEN). For qPCR, we used SYBR green (QIAGEN) and StepOnePlus Real-Time PCR System (Applied Biosystems). Thermal cycles were: 5 min at 95° C., 40 cycles of 15 sec at 95° C., 30 sec at 60° C. Gene expression levels were normalized to Beta Actin. Primers used for qPCR of RIDD targets were as follows: Beta Actin Fwd: 5′-[…]-3′ (SEQ ID NO:4), Beta Actin Rev: 5′-[…]-3′ (SEQ ID NO:5), Insulin 1 Fwd: 5′-GTCCTCTGGGAGCCCAAG-3′ (SEQ ID NO:6), Insulin 1 Rev: 5′-ACAGAGCCTCCACCAGG-3′ (SEQ ID NO:7), Insulin 2 Fwd: 5′-ATCCTCTGGGAGCCCCGC-3′ (SEQ ID NO:8), Insulin 2 Rev: 5′-AGAGAGCTTCCACCAAG-3′ (SEQ ID NO:9), Blos1 Fwd: 5′-[…]-3′ (SEQ ID NO:10), and Blos1 Rev: 5′-[…]-3′ (SEQ ID NO:11).
Real-Time PCR (Q-PCR) used SYBR green and Step OnePlus Real-Time PCR System (Applied Biosystems). Thermal cycles were: 5 min at 95° C., 40 cycles of 15 s at 95° C., 30 s at 60° C. Gene expression levels were normalized to GAPDH. Q-PCR Sense/antisense primers used: Rat GAPDH, 5′-[…]-3′ (SEQ ID NO:14) and 5′-[…]-3′ (SEQ ID NO:15); Rat Ins1, 5′-GTCCTCTGGGAGCCCAAG-3′ (SEQ ID NO:6) and 5′-ACAGAGCCTCCACCAGG-3′ (SEQ ID NO:7); Rat Pdia4, 5′-CGTCTCGCCCTGATTCGT-3′ (SEQ ID NO:16) and 5′-[…]-3′ (SEQ ID NO:17); Rat Blos1, 5′-[…]-3′ (SEQ ID NO:18) and 5′-TGTCCAGTTCGATGCTCCG-3′ (SEQ ID NO:19).
Real-time PCR for FIGS. 34A-34F: Real-Time PCR (Q-PCR) used SYBR green and Step OnePlus Real-Time PCR System (Applied Biosystems). Thermal cycles were: 5 min at 95° C., 40 cycles of 15 s at 95° C., 30 s at 60° C. Gene expression levels were normalized to GAPDH. Q-PCR Sense/antisense primers used: Rat GAPDH, 5′-[…]-3′ (SEQ ID NO:20) and 5′-[…]-3′ (SEQ ID NO:21); Rat Ins1, 5′-GTCCTCTGGGAGCCCAAG-3′ (SEQ ID NO:6) and 5′-ACAGAGCCTCCACCAGG-3′ (SEQ ID NO:7); Rat Ins2, 5′-ATCCTCTGGGAGCCCCGC-3′ (SEQ ID NO:8) and 5′-AGAGAGCTTCCACCAAG-3′ (SEQ ID NO:9); Rat Pdia4, 5′-[…]-3′(SEQ ID NO:22) and 5′-[…]-3′ (SEQ ID NO:23); Rat Blos1, 5′-[…]-3′ (SEQ ID NO:18) and 5′-TGTCCAGTTCGATGCTCCG-3′ (SEQ ID NO:19).

IRE1α = target: T1, IRE1α (Mus musculus, UniProt Q9EQY0); assay: IRE1α autophosphorylation by Phos-tag SDS-PAGE in INS-1 cells expressing IRE1α under Dox control; type: cell-based, rat; settings: various concentrations, 5 ng/mL Dox
T1 construct: expressed in transfected cells
T1 sequence (Q9EQY0 21-977): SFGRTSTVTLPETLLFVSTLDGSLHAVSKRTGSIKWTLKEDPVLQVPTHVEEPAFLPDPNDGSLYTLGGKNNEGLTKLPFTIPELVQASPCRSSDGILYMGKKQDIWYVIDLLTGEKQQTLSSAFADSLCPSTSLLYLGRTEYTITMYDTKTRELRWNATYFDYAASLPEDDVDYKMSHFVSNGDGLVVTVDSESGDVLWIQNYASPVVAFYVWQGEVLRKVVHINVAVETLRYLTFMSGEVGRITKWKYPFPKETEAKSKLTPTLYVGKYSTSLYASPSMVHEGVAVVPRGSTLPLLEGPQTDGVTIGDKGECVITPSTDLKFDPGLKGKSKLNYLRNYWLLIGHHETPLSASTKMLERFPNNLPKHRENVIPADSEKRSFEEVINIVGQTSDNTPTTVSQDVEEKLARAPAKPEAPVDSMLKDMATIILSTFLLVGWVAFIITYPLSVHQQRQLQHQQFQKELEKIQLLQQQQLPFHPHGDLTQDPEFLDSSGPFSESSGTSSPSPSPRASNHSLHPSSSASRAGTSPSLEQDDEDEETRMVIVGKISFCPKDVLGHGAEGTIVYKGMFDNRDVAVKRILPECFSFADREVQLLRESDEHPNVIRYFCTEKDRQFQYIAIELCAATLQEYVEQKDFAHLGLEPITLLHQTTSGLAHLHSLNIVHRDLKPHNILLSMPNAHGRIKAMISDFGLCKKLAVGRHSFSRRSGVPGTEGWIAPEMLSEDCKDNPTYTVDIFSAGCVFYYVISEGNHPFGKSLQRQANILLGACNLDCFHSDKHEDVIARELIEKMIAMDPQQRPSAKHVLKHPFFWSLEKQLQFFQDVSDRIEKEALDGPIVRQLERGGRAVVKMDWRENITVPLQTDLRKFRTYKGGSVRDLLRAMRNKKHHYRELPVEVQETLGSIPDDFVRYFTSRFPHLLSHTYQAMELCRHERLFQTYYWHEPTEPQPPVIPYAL
Procedure: We next tested PAIR1 and KIRA9 in an INS-1 rat insulinoma stable cell line where IRE1α activation can be achieved through conditional overexpression of a mouse IRE1α transgene (Han et al., 2009).
Treatment Conditions for Phostag Gels
INS-1 or IRE1α-overexpressing isogenic INS-1 cells were plated onto a 24-well Poly-D-Lysine coated tissue culture plate and grown for 48 hrs. Inhibitor or DMSO were added to the media and incubated for 1 hour at 37° C. with 5% CO2 prior to addition of ER stress agents. […] Cells were lysed directly into SDS loading buffer (50 mM Tris, 100 mM DTT, 2% SDS (w/v), 10% glycerol (v/v), and 0.1% bromophenol blue (w/v), pH 6.8) and boiled for five minutes prior to gel loading.
Phostag Acrylamide Gel Procedure
A phostag acrylamide gel recipe used to resolve phosphorylation of IRE1α has been previously established and this recipe was followed verbatim for this study.^91 Resolving gels were allowed to solidify (˜1.5 hr) before adding the stacking gel and comb and allowed to solidify (˜1 hr). Gels were run using Tris-Glycine-SDS running buffer (25 mM Tris, 192 mM glycine, 0.1% SDS, pH 8.3) at 100 V for 3-3.5 hours. After the gels have ran, they were transferred onto nitrocellulose paper via rapid transfer using a Transblot Turbo and premade transfer packs. Gels were transferred at 25 V, 2.5 A for 15 minutes. […]

Row | SMILES | mRNA decay substrates Blos1, Ins1 and Ins2 [1] | IRE1α autophosphorylation (IRE1α)
1 | O=S(=O)(CCC(F)(F)F)Nc1ccc(Oc2ncccc2-c2ccnc(NC3CCCNC3)n2)c2ccccc12 (stereo not shown) [KIRA9, 3,3,3-trifluoro-N-(4-(3-(2-(piperidin-3-ylamino)pyrimidin-4-yl)pyridin-2-yloxy)naphthalen-1-yl)propane-1-sulfonamide] | rescued | equivalently block the autophosphorylation
2 | O=S(=O)(CC(F)(F)F)Nc1ccc(Oc2ncccc2-c2ccnc(N[C@H]3CCCNC3)n2)c2ccccc12 (stereo in doubt) [PAIR1, 2,2,2-trifluoro-N-(4-(3-(2-(piperidin-3-ylamino)pyrimidin-4-yl)pyridin-2-yloxy)naphthalen-1-yl)ethanesulfonamide] | rescued | equivalently block the autophosphorylation

Source: US11884649B2, “IRE1α inhibitors and uses thereof” (The Regents of the University of California, priority 2020, dated 2024)
